This experiment addresses T1, hMCHR1 (Homo sapiens, UniProt Q99705).
T1 construct: expressed in transfected cells; host or cells: HEK293
In words: MCHR1 pIC50 Determination FLIPR Assay. The experiment is classed as cell-based. As for the experimental part:
MCHR1 pIC50 Determination FLIPR™ Assay: HEK293 cells stably transfected with hMCHR1 were propagated as adherent cultures at 37° C. in a humidified incubator. Cells were split 1:8 at 90% confluency two times per week. New cell stocks were recovered from storage every two months. Cells were plated in black 384-well plates (Greiner) 24 hours prior to assay at 15,000 cells/well in 50 μL DMEM/F12, 10% FBS, 2 mM I-glutamine. Compounds to be profiled were prepared by making a stock solution at 3×10^−3M in 100% DMSO. The stock solutions were serially diluted 1:4 in 100% DMSO using JANUS (PerkinElmer) liquid handling instrument to allow for an 11 point curve in singlicate. At the time of the assay, the media was removed from the cell plate by aspiration, followed by the addition of 20 μL of loading buffer (Calcium 4 Kit, […]). Following 50 min incubation at 37° C., 10 μL of compound was added to the plates via the FLIPR™ instrument ([…]). The plates were incubated at room temperature for 15 minutes along with an MCH peptide agonist challenge plate. On the FLIPR™, a basal response was collected over 10 seconds followed by the addition of 10 μL of MCH challenge concentration at 4XEC50. Data was collected over 4 minutes and subjected to a nonlinear regression analysis curve fitting program to generate pIC50s.

Setting [1] is: HEK293 cells stably transfected with hMCHR1, MCH challenge at 4XEC50, at least one experimental run, read-out: IC50 in the FLIPR assay.

Like-named read-outs stand apart in the source and are kept apart here.

T1 sequence (Q99705 whole entry): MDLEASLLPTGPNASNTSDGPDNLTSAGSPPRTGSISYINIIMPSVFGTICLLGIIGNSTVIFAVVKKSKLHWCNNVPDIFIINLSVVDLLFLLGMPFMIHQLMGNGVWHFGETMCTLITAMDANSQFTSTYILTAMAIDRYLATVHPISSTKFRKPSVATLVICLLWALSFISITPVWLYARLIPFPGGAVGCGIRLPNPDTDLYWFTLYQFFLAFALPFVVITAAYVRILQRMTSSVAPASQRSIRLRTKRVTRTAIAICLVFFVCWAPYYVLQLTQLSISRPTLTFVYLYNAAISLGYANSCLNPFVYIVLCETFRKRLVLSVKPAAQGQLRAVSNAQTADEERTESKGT

`CC(C)[C@H]1CN(c2ccc(-n3ccc(OCc4ccc(Cl)cn4)cc3=O)cn2)CCN1C` [Example 19]: the IC50 under setting [1] came out at 53 nM.
As to `O=c1cc(OCc2ccc(Cl)cn2)ccn1-c1ccc(N2CCCNCC2)nc1` [Example 13], the IC50 under setting [1] was 52 nM.
With `O=c1cc(OCc2ccc(Cl)cn2)ccn1-c1ccc(N2CCC[C@@H]2CO)nc1` [Example 4, 4-{[(5-chloro-2-pyridinyl)methyl]oxy}-6′-{[(2R)-hydroxymethyl]pyrrolidin-1-yl}-2H-1,3′-bipyridin-2-one], under setting [1], the IC50 was found to be 48 nM.
Take `O=c1cc(OCc2ccc(Cl)cn2)ccn1-c1ccc(N2CCNCC2)nc1` [Example 2, 4-{[(5-chloro-2-pyridinyl)methyl]oxy}-6′-(piperazin-1-yl)-2H-1,3′-bipyridin-2-one]: under “quantity and assay not stated, read-out: unlabelled value in the heading of Example 2”, the IC50 was 88 nM.

These data come from US20120077794A1, “BIS-PYRIDYLPYRIDONES AS MELANIN-CONCENTRATING HORMONE RECEPTOR 1 ANTAGONISTS” (GLAXSMITHKLINE LLC, priority 2009, published 2012).
